Experimental data: PubChem BioAssay (NCI)
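A five-concentration, 48-hour dose response in 96-well plates underlies each endpoint, interpolated linearly between surrounding concentrations. TGI: total growth inhibition.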

Legend:
Assay in all cases: NCI tumour cell line growth inhibition, 48 h
786-0 renal = tested on: 786-0 renal
ACHN renal = tested on: ACHN renal
BT-549 breast = tested on: BT-549 breast
CAKI-1 renal = tested on: CAKI-1 renal
DU-145 prostate = tested on: DU-145 prostate
EKVX NSCLC = tested on: EKVX NSCLC
HCC-2998 colon = tested on: HCC-2998 colon
HOP-62 NSCLC = tested on: HOP-62 NSCLC
MDA-N = tested on: MDA-N
MOLT-4 leukemia = tested on: MOLT-4 leukemia
NCI-H23 lung = tested on: NCI-H23 lung
NCI-H522 lung = tested on: NCI-H522 lung
OVCAR-3 ovarian = tested on: OVCAR-3 ovarian
OVCAR-4 ovarian = tested on: OVCAR-4 ovarian
SF-295 CNS = tested on: SF-295 CNS
SK-MEL-2 melanoma = tested on: SK-MEL-2 melanoma
SNB-19 CNS = tested on: SNB-19 CNS
SNB-75 CNS = tested on: SNB-75 CNS
SF-539 CNS = tested on: SF-539 CNS
SR leukemia = tested on: SR leukemia

Row | Structure (SMILES) | TGI (786-0 renal) [µM] | TGI (ACHN renal) [µM] | TGI (BT-549 breast) [µM] | TGI (CAKI-1 renal) [µM] | TGI (DU-145 prostate) [µM] | TGI (EKVX NSCLC) [µM] | TGI (HCC-2998 colon) [µM] | TGI (HOP-62 NSCLC) [µM] | TGI (MDA-N) [µM] | TGI (MOLT-4 leukemia) [µM] | TGI (NCI-H23 lung) [µM] | TGI (NCI-H522 lung) [µM] | TGI (OVCAR-3 ovarian) [µM] | TGI (OVCAR-4 ovarian) [µM] | TGI (SF-295 CNS) [µM] | TGI (SK-MEL-2 melanoma) [µM] | TGI (SNB-19 CNS) [µM] | TGI (SNB-75 CNS) [µM] | TGI (SF-539 CNS) [µM] | TGI (SR leukemia) [µM]
1 | COc1cc(/C=C2/C[C@H]3[C@@H]4CCC5=CC(=O)CC[C@]5(C)[C@H]4CC[C@]3(C)NC2=O)cc(OC)c1OC | > 100 | > 100 | 53.7 | > 100 | > 100 | > 100 | > 100 | > 100 | > 100 | > 100 | 57.3 | 34 | > 100 | > 100 | 77.7 | > 100 | > 100 | > 100 |  | 
2 | CN(C)S(=O)(=O)n1ccnc1 | > 100 | > 100 | > 100 | > 100 |  | > 100 | > 100 | > 100 | > 100 | > 100 | > 100 | > 100 | > 100 | > 100 | > 100 | > 100 | > 100 | > 100 | > 100 | 
3 | Cc1cc2c(cc1Cl)SC(NN(C)C)=NS2(=O)=O | > 10 | > 10 | > 10 | > 10 | > 10 | > 10 | > 10 | > 10 | > 10 | > 10 | > 10 | > 10 | > 10 | > 10 | > 10 | > 10 | > 10 | > 10 | > 10 | 
4 | O=C(CN1CCOCC1)c1ccc2[nH]c(=O)oc2c1 | > 100 | > 100 | > 100 | > 100 | > 100 | > 100 |  | > 100 | > 100 | > 100 | > 100 |  | > 100 |  | > 100 | > 100 | > 100 | > 100 | > 100 | > 100
5 | Cn1ccnc1SC(F)(F)c1nc2ccccc2o1 | > 100 | > 100 | > 100 | > 100 | > 100 |  | > 100 | > 100 | > 100 | > 100 | > 100 | > 100 | > 100 | > 100 | > 100 | > 100 |  | > 100 | > 100 | 
6 | O=c1oc2ccccc2c(-c2ccc(O)cc2)c1Oc1ccc(Cl)cc1 | 73 | 97.2 | 84.3 | > 100 | > 100 | 68.7 | 46.1 |  | 67.6 |  | 68.6 | 43.7 | 39.7 | > 100 | 60.6 | 54.2 | 67 | 85.7 | > 100 | 51.9
7 | CCOC(=O)CCC(NC(=O)N1CCN(c2c(C)nc(C)[nH]c2=O)CC1)C(=O)OCC (configuration not stated) | > 100 | > 100 | > 100 | > 100 | > 100 | > 100 | > 100 | > 100 | > 100 | > 100 | > 100 | > 100 | > 100 | > 100 | > 100 |  | > 100 |  | > 100 | > 100
8 | CCOP(=O)(OCC)/C(=C/c1ccccc1)CC(C)=O | > 100 | > 100 | > 100 | > 100 | > 100 | > 100 | > 100 | > 100 | > 100 | > 100 | > 100 |  | > 100 | > 100 | > 100 | > 100 | > 100 | > 100 | > 100 | 
9 | NC(=O)ON=C1CCN(Cc2ccccc2)CC1 | > 100 | > 100 |  | > 100 | > 100 | > 100 | > 100 | > 100 | > 100 | > 100 | > 100 | > 100 | > 100 | > 100 | > 100 | > 100 | > 100 | > 100 | > 100 | > 100
10 | Cn1c(=O)c2[nH]c(/N=N\n3ccc4ccccc43)nc2n(C)c1=O | > 100 | > 100 | > 100 | > 100 | > 100 | > 100 | > 100 | > 100 | > 100 | > 100 | > 100 | > 100 | > 100 | > 100 | > 100 |  | > 100 | > 100 | > 100 | > 100
11 | C#CCn1c(=O)c(C)cn(/C(=C/C(=O)OCC)C(=O)OCC)c1=O | 19.4 | 3.64 | 20.4 | 3.18 | 29.5 | 21.1 | 32.2 | 30.5 | 43.8 | 30.6 | 23.4 |  | 19.6 | 19.3 | 40.5 | 27.2 | 28.6 | 28.8 | 4.77 | > 100
12 | CNC(=S)NNC1=NCCCN1 | > 100 | > 100 | > 100 | > 100 |  | > 100 | > 100 | > 100 | > 100 | > 100 | > 100 | > 100 | > 100 | > 100 | > 100 | > 100 | > 100 | > 100 | > 100 | > 100
13 | CCOC(=O)C(Cc1ccc(OC(=O)c2ccc(OC)cc2OC)cc1)NC(=O)C(F)(F)F (configuration not stated) | 93.6 | 30.9 | > 100 | 75.8 | 34.4 | 49.6 | 31.2 | 44.9 | 49.3 | > 100 | 45.1 | 40.9 | 36.9 | 55.8 | 91.5 | 57.5 | > 100 | 33.1 | 54.4 | 
14 | Nc1ccc(-c2nc3cc(F)ccc3s2)cc1Br | > 100 | > 100 | > 74.1 | > 100 | > 100 | > 63.6 | 0.0345 | > 100 | > 100 | > 100 |  | > 100 | > 100 | > 100 | > 100 | > 100 | > 100 | 77.9 | > 71.4 | 
15 | Nc1ccc(S(=O)(=O)Nc2nc3ccccc3nc2Nc2ccc(S(N)(=O)=O)cc2)cc1 | > 100 | > 100 | 62.1 | > 100 | > 100 | > 100 |  | > 100 | > 100 | 93.3 | 48 | 96.6 | > 100 | 49.7 | 72.1 | 45.6 | > 100 | 69.6 | > 100 | > 100
16 | Brc1ccc(-c2ccc(-c3ccc(-c4ccc(Br)s4)s3)s2)s1 | > 100 | > 100 | > 100 | > 100 | > 100 | > 100 | > 100 | > 100 | > 100 | > 100 | > 100 |  | > 100 | > 100 | > 100 |  |  | > 100 | > 100 | > 100
17 | CCC(C)[C@H]1C(=O)N=C(N)N1C(=O)OCc1ccccc1 (some centres not stated) | > 100 | > 100 | > 100 | > 100 | > 100 | > 100 | > 100 | > 100 | > 100 | > 100 | > 100 | > 100 | > 100 | > 100 | > 100 | > 100 | > 100 | > 100 |  | > 100
18 | C/C(=N\N=C(\N)OB(F)F)c1ccccn1 | > 100 | > 100 | > 100 | > 100 | > 100 | > 100 | > 100 | > 100 | > 100 |  | > 100 | > 100 | > 100 | > 100 | > 100 | > 100 | > 100 | 55.7 | > 100 | > 100
19 | CN(C)c1ccc(/C=C2\C[C@H]3[C@@H]4CCC5=CC(=O)CC[C@]5(C)[C@H]4CC[C@]3(C)C2=O)cc1 | > 100 | > 100 | > 100 | > 100 | > 100 | > 100 |  | > 100 | > 100 | > 100 | > 100 |  | > 100 | > 100 | > 100 | > 100 | > 100 | > 100 | > 100 | > 100
20 | CC(C)N(CCCNc1c2ccccc2nc2cccc([N+](=O)[O-])c12)C(C)C | 0.155 | < 0.0301 | < 0.0442 | 0.593 | < 0.01 |  | < 0.01 |  | < 0.01 |  | < 0.0183 |  |  | 0.103 | < 0.0457 | 0.24 | 0.121 | 0.149 | < 0.0437 | 11.8
21 | COc1ccc2cc(-c3ccc(OC)c(OC)c3)c(=O)oc2c1 | > 100 | > 100 | > 100 | > 100 | > 100 | > 100 | > 100 | > 100 | > 100 | > 100 | > 100 | > 100 | > 100 | > 100 | > 100 | > 100 | > 100 |  | > 100 | > 100
22 | Nc1cc(OCc2ccccc2)c(OCc2ccccc2)cc1C=O | 55.4 | 93.5 | 37.3 |  | > 100 | > 100 | 34.5 |  | > 100 | > 100 |  | 24.5 |  |  | 70 | > 100 | > 100 | > 100 | 31.7 | > 100
23 | Cc1ccc2c(=O)c(-c3nnsn3)c[nH]c2n1 | > 100 | > 100 | > 100 | > 100 | > 100 | > 100 |  | > 100 | > 100 | > 100 | > 100 | > 100 | > 100 | > 100 | > 100 | > 100 | > 100 |  |  | 
24 | C/C(Sc1ccccc1)=C1/CCCN(Cc2ccccc2)C1 | 50.3 | > 100 |  | > 100 | > 100 | > 100 | 53.3 | 61.4 | > 100 | 39.4 | 79.5 | 38.8 | 38.8 | > 100 | 50.9 | 34 | > 100 | 86.3 | > 100 | 35.7
25 | CCOC(=O)CC/C(C)=N\n1c(Cc2ccc(Cl)cc2)n[nH]c1=O | > 100 | > 100 | > 100 | > 100 | > 100 |  | > 100 | > 100 | > 100 | > 100 | > 100 | > 100 | > 100 |  | > 100 | > 100 | > 100 | > 100 | > 100 | > 100
26 | NC(=S)SC1=NNC2(C(=O)N1)c1ccccc1-c1ccccc12 | > 10 | > 10 | > 10 | > 10 | > 10 | > 10 | > 10 | > 10 | > 10 |  | > 10 | > 10 |  | > 10 | > 10 |  | > 10 | > 10 | > 10 | > 10
